Here are results for 17 compounds from patent US8716289B2, “Carbamate derivatives of alkyl-heterocycles, preparation thereof and therapeutic use thereof” (Sanofi, priority 2008, dated 2014).

In data set [1] the target is T1, enzyme FAAH (Fatty Acid Amide Hydrolase) (Mus musculus, UniProt O08914).
T1 construct: The membrane homogenates are prepared extemporaneously by homogenizing the tissues; from tissue; host or cells: mouse brain (minus the cerebellum), membrane homogenate
T1 sequence (O08914 1-579): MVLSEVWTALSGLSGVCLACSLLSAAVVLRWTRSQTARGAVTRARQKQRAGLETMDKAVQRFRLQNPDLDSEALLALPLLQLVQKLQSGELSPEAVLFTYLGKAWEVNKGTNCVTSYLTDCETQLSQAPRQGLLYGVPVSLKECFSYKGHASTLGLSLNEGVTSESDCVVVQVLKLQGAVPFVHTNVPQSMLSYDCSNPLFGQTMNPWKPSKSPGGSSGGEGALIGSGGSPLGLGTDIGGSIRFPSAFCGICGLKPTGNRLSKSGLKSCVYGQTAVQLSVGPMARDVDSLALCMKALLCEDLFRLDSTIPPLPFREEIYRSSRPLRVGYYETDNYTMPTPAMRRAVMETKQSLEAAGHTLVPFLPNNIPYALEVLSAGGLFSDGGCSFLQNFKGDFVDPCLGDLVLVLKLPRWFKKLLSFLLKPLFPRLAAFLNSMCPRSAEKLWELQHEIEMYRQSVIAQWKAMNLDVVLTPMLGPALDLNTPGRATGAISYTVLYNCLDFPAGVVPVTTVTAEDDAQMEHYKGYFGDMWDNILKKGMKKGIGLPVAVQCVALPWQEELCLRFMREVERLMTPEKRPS
Put plainly: FAAH radioenzymatic test, hydrolysis of anandamide [ethanolamine 1-3H] (Protocol 1). The data set is classed as biochemical. To be noted: mouse brain membrane homogenate, anandamide 10 μM, preincubation 20 min at 25° C. Here is the method: Thus, mouse brains (minus the cerebellum) are removed and stored at −80° C. The membrane homogenates are prepared extemporaneously by homogenizing the tissues using a Precellys® machine in reaction buffer (10 mM Tris-HCl, pH=8, 150 mM NaCl and 1 mM ethylenediaminetetraacetic acid (EDTA)). The enzymatic reaction is performed in 96-well Multiscreen filtration plates in a final volume of 70 μL. Reaction buffer supplemented with fatty acid-free bovine serum albumin (BSA, 1 mg/ml) is used for the enzymatic reaction and the dilution of the compounds and of the anandamide [ethanolamine 1-^3H]. The reaction buffer containing BSA (43 μL/well), the diluted test compounds at different concentrations (7 μL/well containing 1% DMSO) and the membrane preparation (10 μL/well, i.e. […] of tissue per test) are successively added to the wells. After preincubation for 20 minutes of the compounds with the enzyme at 25° C., the reaction is started by adding anandamide [ethanolamine 1-^3H]. (Specific activity of 15-20 Ci/mmol) diluted with cold anandamide (10 μL/well, final concentration of 10 μM, 0.01 ρCi per test). After incubation for 20 minutes at 25° C., the enzymatic reaction is stopped by adding a […] solution of active charcoal prepared in 1.5M NaCl buffer and 0.5 M HCl (50 μL/well). The mixture is stirred for 10 minutes and the aqueous phase containing the ethanolamine [1-^3H] is then recovered by filtration under vacuum and counted by liquid scintillation.

In another data set the test system is male OF1 mice. Put plainly: test of analgesia: PBQ-induced abdominal stretching. The class given is in vivo, mouse. To be noted: 30 mg/kg p.o. at 120 minutes. The method, then: The in vivo activity of the compounds of the invention was evaluated in a test of analgesia.
Thus, the intraperitoneal (i.p.) administration of PBQ (phenylbenzoquinone, 2 mg/kg in 0.9% sodium chloride solution containing 5% ethanol) to male OF1 mice weighing 25 to 30 g causes abdominal stretching, on average 30 torsions or contractions within a period of 5 to 15 minutes after injection. The test compounds are administered orally (p.o.) or intraperitoneally (i.p.) suspended in Tween 80 at 0.5%, 60 minutes or 120 minutes before the administration of PBQ. Under these conditions, the compounds of the invention that are the most powerful reduce by 30% to 80% the number of stretches induced with PBQ, over a dose range of between 1 and 30 mg/kg.

In data set [2] the target is T1, enzyme FAAH (Fatty Acid Amide Hydrolase). Put plainly: FAAH fluorescent enzymatic test, hydrolysis of AAMC (Protocol 2). The data set is classed as biochemical. The following applies: mouse brain homogenate, AAMC 10 μM, preincubation 20 min at 25° C. The method, then:
Thus, mouse brains (minus the cerebellum) are withdrawn and stored at −80° C. The brain homogenates are prepared extemporaneously by homogenizing the tissues using a Precellys® machine in reaction buffer (10 mM Tris-HCl, pH=8, 150 mM NaCl and 1 mM ethylenediaminetetraacetic acid (EDTA)). The enzymatic reaction is performed in black polystyrene 384-well plates in a final volume of 50 μL. Reaction buffer supplemented with fatty acid-free bovine serum albumin (BSA, 1 mg/ml) is used for the enzymatic reaction, the dilution of the compounds and the dilution of the AAMC. Reaction buffer containing the BSA (25 μL/well), the diluted test compounds at different concentrations (5 μL/well containing 1% DMSO) and the membrane preparation (10 μL/well, i.e. 200 μg of tissue per test) are successively added to the wells. After preincubation for 20 minutes of the compounds with the enzyme at 25° C., the reaction is started by adding 10 μL of substrate per well (AAMC, final concentration of 10 μM). After incubation for 40 minutes, the aminomethyl coumarin (AMC) produced is measured by fluorescent counting (Envision plate reader).

In the case of `CCC1(CCNC(=O)OCc2cc(C(=O)NC)no2)CCN(c2cnc3cc(Cl)ccc3n2)CC1` [Compound 64], 3 nM corresponded to half-maximal inhibition in data set [1] (IC50).

As for `NC(=O)c1cc(COC(=O)NCCC2CCN(c3ccc(-c4ccc(F)cc4)cn3)CC2)on1` [Compound 19, 3-carbamoylisoxazol-5-ylmethyl 2-[5′-(4-fluorophenyl)-3,4,5,6-tetrahydro-2H-[1,2′]bipyridinyl-4-yl]ethylcarbamate], the melting point was 202 to 204 °C. The compound also came in with an IC50 in data set [1] of 1 nM. For the same compound, the “reduction of the number of stretches induced with PBQ” value in the data set with male OF1 mice is listed as 30%.

On to `O=C(NCCC1CCN(c2ccc3cc(Cl)ccc3n2)CC1)OCc1nnc(-c2ccc(F)cc2)o1` [Compound 12, 5-(4-fluorophenyl)[1,3,4]oxadiazol-2-ylmethyl 2-[1-(6-chloroquinolin-2-yl)piperidin-4-yl]ethylcarbamate], for which the melting point was in the range of 169 to 170 °C. In data set [1], this compound showed a half-maximal inhibitory concentration (IC50) of 47 nM.

`NC(=O)c1cc(COC(=O)NCCC2CCN(c3nccc(C(F)(F)F)n3)CC2)on1` [Compound 38] returned an IC50 in data set [1] of 2 nM.

`Cn1ccc(COC(=O)NCCCC2CCN(c3nccc(C(F)(F)F)n3)CC2)n1` [Compound 52]: the IC50 in data set [1] came to 28 nM.

The compound `CCc1noc(COC(=O)NCCC2CCN(c3ccc(-c4ccc(F)cc4)cn3)CC2)n1` [Compound 5, 3-ethyl[1,2,4]oxadiazol-5-ylmethyl 2-[5′-(4-fluorophenyl)-3,4,5,6-tetrahydro-2H-[1,2′]bipyridinyl-4-yl]-ethylcarbamate] yielded a melting point of 110 to 112 °C. Moreover, the IC50 in data set [1] stood at 2 nM.

The compound `CN1CCN(C(=O)c2cc(COC(=O)NCCC3CCN(c4ccc(-c5ccc(F)cc5)cn4)CC3)on2)CC1` [Compound 46] showed a half-maximal inhibitory concentration (IC50) in data set [1] of 16 nM.

In turn, `NC(=O)c1cc(COC(=O)NCCC2CCN(c3ccc(-c4ccc(F)cc4)nn3)CC2)on1` [Compound 41] yielded a half-inhibitory concentration (IC50) in data set [1] of 0.6 nM.

`Cn1ncnc1COC(=O)NCCC1CCN(c2ccc3cc(Cl)ccc3n2)CC1` [Compound 2, 2-methyl-2H-[1,2,4]triazol-3-ylmethyl 2-[1-(6-chloroquinolin-2-yl)piperidin-4-yl]ethylcarbamate] returned a melting point of 122 to 124 °C. Also, in data set [1], half-maximal inhibition (IC50) required 40 nM.

Compound `CNC(=O)c1cc(COC(=O)NCCC2CCN(c3ccc(-c4ccc(F)cc4)cc3)CC2)on1` [Compound 29, 3-methylcarbamoylisoxazol-5-ylmethyl 2-[1-(4′-fluorobiphenyl-4-yl)piperidin-4-yl]ethylcarbamate] had a melting point of 212 to 215 °C. This compound also came in with an IC50 in data set [2] of 0.7 nM.

`O=C(NCCC1CCN(c2ccc(-c3ccc(F)cc3)cn2)CC1)OCc1csnn1` [Compound 9, [1,2,3]thiadiazol-4-ylmethyl 2-[5′-(4-fluorophenyl)-3,4,5,6-tetrahydro-2H-[1,2′]bipyridinyl-4-yl]ethylcarbamate] registered a melting point of 139 to 141 °C. The same compound yielded an IC50 in data set [1] of 2 nM.

Turning to `NC(=O)c1cc(COC(=O)NCCC2CCN(c3ccc4cc(Cl)ccc4n3)CC2)on1` [Compound 1, 3-carbamoylisoxazol-5-ylmethyl 2-[1-(6-chloroquinolin-2-yl)piperidin-4-yl]ethylcarbamate], the melting point lay within 220 to 222 °C. The compound further yielded an IC50 in data set [1] of 1 nM. In addition, the “reduction of the number of stretches induced with PBQ” value with male OF1 mice was 55%.

In turn, `CNC(=O)c1cc(COC(=O)NCCC2(CC(C)C)CCN(c3ccc([N+](=O)[O-])cc3C(F)(F)F)CC2)on1` [Compound 66, 3-methylcarbamoylisoxazol-5-ylmethyl {2-[4-isobutyl-1-(4-nitro-2-trifluoromethylphenyl)piperidin-4-yl]ethyl}carbamate] registered a melting point of 145 to 147 °C.

As for `Cn1ccnc1C(OC(=O)NCCC1CCN(c2ccc3cc(Cl)ccc3n2)CC1)C(F)(F)F` (racemic) [Compound 73, 2,2,2-trifluoro-1-(1-methyl-1H-imidazol-2-yl)ethyl {2-[1-(6-chloroquinolin-2-yl)piperidin-4-yl]ethyl}carbamate], the melting point was in the range of 196 to 198 °C.

`NC(=O)c1cc(COC(=O)NCCC2CCN(c3ccc4cc(F)ccc4n3)CC2)on1` [Compound 23, 3-carbamoylisoxazol-5-ylmethyl 2-[1-(6-fluoroquinolin-2-yl)piperidin-4-yl]ethylcarbamate]: the melting point lay in the range of 200 to 202 °C.

`CC(C)(C)c1nnc(COC(=O)NCCC2CCN(c3ccc(-c4ccc(F)cc4)cn3)CC2)s1` [Compound 10, 5-tert-butyl[1,3,4]thiadiazol-2-ylmethyl 2-[5′-(4-fluorophenyl)-3,4,5,6-tetrahydro-2H-[1,2′]bipyridinyl-4-yl]-ethylcarbamate] returned a melting point of 139 to 140 °C.

Take `CC(C)c1nc(COC(=O)NCC2CCN(c3nccc4ccccc34)CC2)no1` [Compound 67, 5-isopropyl[1,2,4]oxadiazol-3-ylmethyl (1-isoquinolin-1-ylpiperidin-4-ylmethyl)carbamate]: the melting point lay in the range of 95 to 97 °C.

The term IC50 denotes the point on the concentration scale where inhibition reaches its midpoint. High values mean lower potency, low ones higher potency. By melting point is commonly meant the temperature of the solid-liquid transition.
